# Experimental data published in patent US5043450A, “8-alkoxyquinolonecarboxylic acid and salts thereof” (priority 1986, dated 1991).
# What was measured:
# Assay type in all cases: cell-based
# [1] = test system: Staphylococcus aureus 209 P; assay: Antibacterial spectra, MIC; settings: 10^6 cells/ml, Gram +, read-out: MIC
# [2] = test system: S. aureus IID 670 (Terajima); assay: Antibacterial spectra, MIC; settings: Staphylococcus aureus, IID670; 10^6 cells/ml; Gram +; read-out: MIC
# [3] = test system: S. epidermidis IID 866; assay: Antibacterial spectra, MIC; settings: Staphylococcus epidermidis, IID866; 10^6 cells/ml; Gram +; read-out: MIC
# [4] = test system: E. coli ML 4707; assay: Antibacterial spectra, MIC; settings: Escherichia coli, ML4707; 10^6 cells/ml; Gram -
# Experimental: (§1) The antibacterial test was carried out according to the method designated by Japan Society of Chemotherapy.
# [5] = test system: E. faecalis IID 682; assay: Antibacterial spectra, MIC; settings: Enterococcus faecalis, IID682; 10^6 cells/ml; Gram +
# Experimental: as §1
# [6] = test system: Proteus vulgaris IFO 3167; assay: Antibacterial spectra, MIC; settings: IFO3167, 10^6 cells/ml, Gram -
# Experimental: as §1
# [7] = test system: Shigella sonnei IID 969; assay: Antibacterial spectra, MIC; settings: IID969, 10^6 cells/ml, Gram -
# Experimental: as §1
# [8] = test system: Streptococcus pyogenes (S-8); assay: Antibacterial spectra, MIC; settings: 10^6 cells/ml, Gram +
# Experimental: as §1
# [9] = test system: S. pyogenes IID 692; assay: Antibacterial spectra, MIC; settings: Streptococcus pyogenes, IID692; 10^6 cells/ml; Gram +; read-out: MIC
# [10] = test system: S. pneumoniae IID 552; assay: Antibacterial spectra, MIC; settings: Streptococcus pneumoniae, IID552; 10^6 cells/ml; Gram +; read-out: MIC
# [11] = test system: Escherichia coli NIHJ JC-2; assay: Antibacterial spectra, MIC; settings: NIHJJC2
# [12] = test system: P. mirabilis IID 994; assay: Antibacterial spectra, MIC; settings: Proteus mirabilis, IID994; 10^6 cells/ml; Gram -; read-out: MIC
# [13] = test system: Klebsiella pneumoniae KY(GN)6445; assay: Antibacterial spectra, MIC
# [14] = test system: K. pneumoniae 1-220S; assay: Antibacterial spectra, MIC; settings: Klebsiella pneumoniae, 1220S; 10^6 cells/ml; Gram -; read-out: MIC
# [15] = test system: Enterobacter cloacae IID 977; assay: Antibacterial spectra, MIC; settings: IID977, 10^6 cells/ml, Gram -, read-out: MIC
# [16] = test system: Citrobacter freundii IID 976; assay: Antibacterial spectra, MIC; settings: IID976, 10^6 cells/ml, Gram -, read-out: MIC
# [17] = test system: Serratia marcescens IID 618; assay: Antibacterial spectra, MIC; settings: IID618, 10^6 cells/ml, Gram -, read-out: MIC
# [18] = test system: Salmonella enteritidis IID 604; assay: Antibacterial spectra, MIC; settings: Salmonella enterica; 10^6 cells/ml; Gram -; read-out: MIC
# [19] = test system: P. aeruginosa IID 1210; assay: Antibacterial spectra, MIC; settings: Pseudomonas aeruginosa, IID1210; 10^6 cells/ml; Gram -; read-out: MIC
# [20] = test system: P. cepacia GIFU 518; assay: Antibacterial spectra, MIC; settings: Burkholderia cepacia, GIFU518; 10^6 cells/ml; Gram -; read-out: MIC
# [21] = test system: P. maltophilia GIFU 2491; assay: Antibacterial spectra, MIC; settings: Stenotrophomonas maltophilia, GIFU2491; 10^6 cells/ml; Gram -; read-out: MIC
# [22] = test system: Yersinia enterocolitica IID 981; assay: Antibacterial spectra, MIC; settings: IID981, 10^6 cells/ml, Gram -, read-out: MIC
# [23] = test system: Acinetobacter anitratus IID 876; assay: Antibacterial spectra, MIC; settings: Acinetobacter calcoaceticus, IID876; 10^6 cells/ml; Gram -; read-out: MIC
# [24] = test system: Alcaligenes faecalis 0114002; assay: Antibacterial spectra, MIC; settings: 10^6 cells/ml, Gram -, read-out: MIC
# [25] = test system: Bacteroides fragilis GM 7000; assay: Antibacterial spectra, MIC; settings: GM7000, 10^6 cells/ml, Gram -, read-out: MIC
# [26] = test system: B. fragilis 0558; assay: Antibacterial spectra, MIC; settings: Bacteroides fragilis, 10^6 cells/ml, Gram -, read-out: MIC
# [27] = test system: B. fragilis 25285; assay: Antibacterial spectra, MIC; settings: Bacteroides fragilis, 10^6 cells/ml, Gram -, read-out: MIC
# [28] = test system: B. distasonis 8503; assay: Antibacterial spectra, MIC; settings: Parabacteroides distasonis, 10^6 cells/ml, Gram -, read-out: MIC
# [29] = test system: B. thetaiotaomicron (0661); assay: Antibacterial spectra, MIC; settings: Bacteroides thetaiotaomicron; 10^6 cells/ml; Gram -; read-out: MIC
# [30] = test system: F. necrophorum S-45; assay: Antibacterial spectra, MIC; settings: Fusobacterium necrophorum, S45; 10^6 cells/ml; Gram -; read-out: MIC
# [31] = test system: Eubacterium lentum GAI 5242; assay: Antibacterial spectra, MIC; settings: Eggerthella lenta, GAI5242
# [32] = test system: Propionibacterium acens 11828; assay: Antibacterial spectra, MIC; settings: 10^6 cells/ml, Gram +, read-out: MIC
# [33] = test system: Peptococcus magnus KY 017; assay: Antibacterial spectra, MIC; settings: Finegoldia magna, KY017; 10^6 cells/ml; Gram +; read-out: MIC
# [34] = test system: C. perfringens KYA 13123; assay: microbe, parasite or virus in culture; settings: Clostridium perfringens, KYA13123
# [35] = test system: Pst. micros UPI 5464-1; assay: Antibacterial spectra, MIC; settings: Parvimonas micra, UPI54641; 10^6 cells/ml; Gram +; read-out: MIC
# [36] = test system: Veillonella parvula KYA 10790; assay: Antibacterial spectra, MIC; settings: KYA10790, 10^6 cells/ml, Gram -, read-out: MIC
smiles,measurement,setting,value
"CCOc1c(N2CCNCC2)c(F)cc2c(=O)c(C(=O)O)cn(C3CC3)c12 [Exp. 18, 1-cyclopropyl-6-fluoro-1,4-dihydro-8-ethoxy-4-oxo-7-(1-piperazinyl)-3-quinolinecarboxylic acid]",MIC,[1],0.2 µg/mL
same,MIC,[2],0.39 µg/mL
same,MIC,[3],0.39 µg/mL
same,MIC,[4],≤ 0.05 µg/mL
same,MIC,[5],1.56 µg/mL
same,MIC,[6],≤ 0.05 µg/mL
same,MIC,[7],≤ 0.05 µg/mL
same,MIC,[8],1.56 µg/mL
same,MIC,[9],3.13 µg/mL
same,MIC,[10],0.78 µg/mL
same,MIC,[11],≤ 0.05 µg/mL
same,MIC,[12],0.1 µg/mL
same,MIC,[13],≤ 0.05 µg/mL
same,MIC,[14],0.2 µg/mL
same,MIC,[15],0.2 µg/mL
same,MIC,[16],0.1 µg/mL
same,MIC,[17],0.2 µg/mL
same,MIC,[18],0.1 µg/mL
same,MIC,[19],6.25 µg/mL
same,MIC,[20],3.13 µg/mL
same,MIC,[21],0.39 µg/mL
same,MIC,[22],0.2 µg/mL
same,MIC,[23],0.1 µg/mL
same,MIC,[24],0.78 µg/mL
same,MIC,[25],3.13 µg/mL
same,MIC,[26],12.5 µg/mL
same,MIC,[27],3.13 µg/mL
same,MIC,[28],12.5 µg/mL
same,MIC,[29],12.5 µg/mL
same,MIC,[30],3.13 µg/mL
same,MIC,[31],1.56 µg/mL
same,MIC,[32],12.5 µg/mL
same,MIC,[33],0.78 µg/mL
same,MIC,[34],1.56 µg/mL
same,MIC,[35],0.78 µg/mL
same,MIC,[36],0.78 µg/mL
